In patent US20050009837A1, “Modulators of lipid metabolism and methods of use” (City of Hope, priority 2003, published 2005):

Key:
[1] = target: T1, LXRα-RXR heterodimers and receptor interaction domains of coactivator SRC1 (Homo sapiens, UniProt Q13133); assay: LXR-coactivator association, VP-L-hLXRα / L-hRXRα / GAL4-SRC1 in CV-1 cells; type: cell-based; details: 20 μM, coactivator GAL4-SRC1, CV-1 cells
T1 construct: expressed in transfected cells; host or cells: CV-1 cells
T1 sequence (Q13133 209-447 limits assumed): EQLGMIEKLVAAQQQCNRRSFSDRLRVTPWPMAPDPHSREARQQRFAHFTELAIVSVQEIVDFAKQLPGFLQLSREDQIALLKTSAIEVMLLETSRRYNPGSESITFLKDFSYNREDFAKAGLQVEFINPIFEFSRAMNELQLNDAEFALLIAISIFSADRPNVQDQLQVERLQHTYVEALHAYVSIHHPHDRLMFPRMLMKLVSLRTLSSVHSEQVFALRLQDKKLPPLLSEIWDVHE
T1 sequence (P19793 227-458 partner limits assumed): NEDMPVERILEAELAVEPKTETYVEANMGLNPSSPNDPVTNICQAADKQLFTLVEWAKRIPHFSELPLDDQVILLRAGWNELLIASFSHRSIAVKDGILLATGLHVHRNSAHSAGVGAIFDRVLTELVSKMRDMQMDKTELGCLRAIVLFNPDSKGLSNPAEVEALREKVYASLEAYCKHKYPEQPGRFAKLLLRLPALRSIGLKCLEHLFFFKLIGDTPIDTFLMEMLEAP
Experimental: CV-1 cells were grown in DMEM supplemented with 10% resin-charcoal stripped fetal bovine serum, 50 U/ml penicillin G and 50 μg/ml streptomycin sulfate at 37° C. in 5% CO2. Cells were plated to 50-80% confluence one day prior to transfection using phenol red-free DMEM-FBS. The cells were transfected by lipofection using N-[1-(2,3-dioleoyloxy)propyl]-N,N,N-ammonium methyl sulfate according to manufacturer's instructions (Boehringer Mannheim).
Genes encoding the following full-length proteins, which are suitable for use in the studies described herein, were cloned into pCMX: human RXRα (Gene Bank accession X52773) and human LXRα (GenBank accession U22662). The cells were transfected with CMX-βgal and luciferase constructs. The CMX-βGal construct contained the ligand binding domain of human RXR (hRXRα) and the ligand binding domain of human LXRα (hLXRα) as indicated in FIG. 1. The luciferase reporter construct (LXREx3 TK-Luc) contained the herpes virus thymidine kinase promoter (−105/+51) linked to three copies of the response element LXRE. After transfection, the cells were treated with 20 μM of a synthetic azole test compound or vehicle alone for 40 hours in phenol red-free DMEM-FBS.
VP-L-hLXRα contains the transactivation domain of Herpes VP16, linked to the LBD of human LXRα, L-hRXRα is the LBD of human RXRα. UASGx4 TK-Luc was the reporter gene, and the assay additionally included the coactivator GAL4-SRC1. Treatment with 20 μM azole compound as indicated was able to inhibit interactions between LXRα-RXR heterodimers and the receptor interaction domains from the coactivator SRC1.

CV-1 cells = assay: Cytotoxicity in transfected CV-1 cells; details: T0901317 100 nM; Clotrimazole, S883417, S100250 10 μM; approximately 40 hours
Experimental: Synthetic compounds were screened in an effort to find more specific LXR inhibitors. CV-1 cells were maintained and transfected using known methods. Forman et al., Cell 81: 687-693, 1995. CV-1 cells were transiently transfected with Gal-hLXRα, the RXR LBD, the UASGx4 TK Luc reporter and CMX-β-gal as an internal control, either in standard or in lipid-stripped serum. After transfection, cells were treated for approximately 40 hours with phenol red-free DMEM-FBS containing the indicated compounds at the following concentrations: T0901317 (100 nM), Clotrimazole (10 μM), S883417(10 μM) and S100250 (10 μM), unless otherwise specified. After exposure to ligand, the cells were harvested and assayed for luciferase and β-galactosidase activity. The luciferase activity was normalized to the internal β-galactosidase control (reporter activity).

[2] = target: T2, LXRβ - coactivator SRC-1 interaction (Homo sapiens, UniProt P55055); assay: Mammalian two-hybrid assay Gal-SRC-1 / VP-LXRβ LBD / RXR LBD in CV-1 cells; type: cell-based; details: 40 hours
T2 construct: expression plasmids for Gal-SRC-1, VP-LXRα LBD or VP-LXRβ LBD, the RXR LBD; expressed in transfected cells; host or cells: CV-1 cells
Text: (§1) One characteristic of nuclear receptor antagonists is their ability to displace coactivators bound to ligand-activated receptors. Thus, if Clotrimazole is an antagonist of LXR, it should inhibit the recruitment of coactivators. To test this, a mammalian two-hybrid assay was used. In this assay, CV-1 cells were transfected with Gal-SRC-1, VP-LXRα or VP-LXRβ, the RXR LBD and a reporter construct. In this type of assay, therefore, only a protein-protein interaction between the coactivator SRC-1 and LXR can result in transcriptional activity. The mammalian two-hybrid assay of FIG. 6 was performed by transfecting CV-1 cells with expression plasmids for Gal-SRC-1, VP-LXRα LBD or VP-LXRβ LBD, the RXR LBD and the USAGx4 Tkluc reporter. Cells were treated for 40 hours with Clotrimazole before luciferase and β-galactosidase activities were measured. Gal-SRC in FIG. 6 refers to a fusion between the Gal4 DNA binding domain and the three receptor interaction domains of SRC-1.

PPARα = PPARα (Homo sapiens, UniProt Q07869); assay: PPARα activity (data not shown); type: cell-based
human PXR = human PXR (Homo sapiens, UniProt O75469); details: cited from earlier work
[3] = target: T3, LXRα - coactivator SRC-1 interaction (Homo sapiens, UniProt Q13133); assay: Mammalian two-hybrid assay Gal-SRC-1 / VP-LXRα LBD / RXR LBD in CV-1 cells; type: cell-based
T3 construct: expression plasmids for Gal-SRC-1, VP-LXRα LBD or VP-LXRβ LBD, the RXR LBD; expressed in transfected cells; host or cells: CV-1 cells
Text: as §1

T2 sequence (P55055 222-460 limits assumed, one chain of several): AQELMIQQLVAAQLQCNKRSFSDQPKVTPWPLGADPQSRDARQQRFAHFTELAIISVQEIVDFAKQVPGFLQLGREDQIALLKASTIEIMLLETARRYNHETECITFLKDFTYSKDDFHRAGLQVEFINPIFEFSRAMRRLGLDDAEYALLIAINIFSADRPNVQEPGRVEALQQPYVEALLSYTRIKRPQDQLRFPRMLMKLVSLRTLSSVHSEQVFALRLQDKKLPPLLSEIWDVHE
Sequence of PPARα (Q07869 whole entry, species assumed): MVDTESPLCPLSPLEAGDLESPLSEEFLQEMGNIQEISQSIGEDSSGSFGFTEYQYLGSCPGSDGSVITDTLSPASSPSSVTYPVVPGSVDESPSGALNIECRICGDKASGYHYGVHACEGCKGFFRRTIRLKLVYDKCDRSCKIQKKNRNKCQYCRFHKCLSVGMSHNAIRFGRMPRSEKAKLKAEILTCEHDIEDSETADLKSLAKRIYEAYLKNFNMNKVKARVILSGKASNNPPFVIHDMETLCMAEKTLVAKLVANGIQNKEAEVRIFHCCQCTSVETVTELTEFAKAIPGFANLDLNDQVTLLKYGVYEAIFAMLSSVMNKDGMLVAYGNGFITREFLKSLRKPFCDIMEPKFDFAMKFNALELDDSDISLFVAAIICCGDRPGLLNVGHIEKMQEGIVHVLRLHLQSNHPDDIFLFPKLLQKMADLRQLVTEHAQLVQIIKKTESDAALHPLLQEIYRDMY
Sequence of human PXR (O75469 whole entry, the tested form may be a part): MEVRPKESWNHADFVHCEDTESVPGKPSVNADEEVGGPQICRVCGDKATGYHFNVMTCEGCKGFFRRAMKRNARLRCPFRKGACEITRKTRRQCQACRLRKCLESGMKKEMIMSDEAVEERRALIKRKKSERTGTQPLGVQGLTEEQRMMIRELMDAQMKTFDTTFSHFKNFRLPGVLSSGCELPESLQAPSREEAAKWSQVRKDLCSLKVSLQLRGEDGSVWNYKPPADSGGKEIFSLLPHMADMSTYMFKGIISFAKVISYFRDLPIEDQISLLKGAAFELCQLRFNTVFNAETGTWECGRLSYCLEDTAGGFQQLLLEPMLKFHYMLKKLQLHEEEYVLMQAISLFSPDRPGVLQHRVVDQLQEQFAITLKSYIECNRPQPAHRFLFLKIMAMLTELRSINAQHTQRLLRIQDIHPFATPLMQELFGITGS

Compound: Clc1ccccc1C(c1ccccc1)(c1ccccc1)n1ccnc1 [Clotrimazole]
- inhibition of LXR-coactivator association [1]: inhibition of LXR-coactivator association
- cytotoxicity (CV-1 cells): No cytotoxicity
- interaction of LXRβ with coactivator SRC-1 [2]: inhibited this interaction
- effect on PPARα activity (PPARα): no effect
- activity on human PXR (human PXR): agonist
- interaction of LXRα with coactivator SRC-1 ([3]; 40 hours, two-hybrid): inhibited this interaction
- basal transcription ([3]; two-hybrid specificity control): did not inhibit basal transcription
